# Results reported in publication PMC6106931 (Alzheimer's Research & Therapy, 2018).
# Experiment: Clinical safety, Study ALZ1005
# Format: in vivo, human
# Details: for patients with one or more TEAEs: Caucasian early AD; for Subjects with any TEAE / TEAE: Accidental overdose / TEAE: Anxiety / TEAE: Bladder cancer / TEAE: Conjunctivitis / TEAE: Dementia Alzheimer’s type / TEAE: Depressed mood / TEAE: Dermatitis allergic / TEAE: Dizziness / TEAE: Eczema vesicular / TEAE: Fatigue / TEAE: Gastrointestinal disorders / TEAE: General disorders and administration site conditions / TEAE: Headache / TEAE: Hypertension / TEAE: Infections and infestations / TEAE: Injury, poisoning and procedural complications / TEAE: Insomnia / TEAE: Irritability / TEAE: Musculoskeletal and connective tissue disorders / TEAE: Nasopharyngitis / TEAE: Nausea / TEAE: Neck pain / TEAE: Neoplasms benign, malignant and unspecified / TEAE: Nervous system disorders / TEAE: Post lumbar puncture syndrome / TEAE: Psoriasis / TEAE: Psychiatric disorders / TEAE: Renal and urinary disorders / TEAE: Renal colic / TEAE: Reproductive system and breast disorders / TEAE: Skin and subcutaneous tissue disorders / TEAE: Somnolence / TEAE: Syncope / TEAE: Urticaria / TEAE: Vascular disorders / TEAE: Vulvovaginal candidiasis / TEAE: Vulvovaginal pruritus: MCI due to AD
# Protocol: Safety and tolerability were assessed during the study by recording adverse events (AEs), clinically significant abnormalities, clinical laboratory tests, ECG, and vital signs and by performing physical, neurological, and MRI examinations. All enrolled participants were included in the safety analysis population.
smiles,measurement,setting,value
C[C@@]1(c2cc(NC(=O)c3ccc(C#N)cn3)ccc2F)C=CSC(N)=N1 [atabecestat],relevant abnormal neurological finding,"10 mg, one participant, day 28",mild ataxia
same,events considered possibly related to the study drug,50-mg group,urticaria (n = 1)
same,events considered probably related to the study drug,50-mg group,"nausea (n = 1), dementia of Alzheimer’s type (n = 1), headache (n = 1)"
same,tolerability,"Caucasian and Japanese, 10 and 50 mg, 4 weeks",well tolerated
same,patients with one or more TEAEs,"10-mg group, 3 of 15 patients",20.0%
same,patients with one or more TEAEs,"50-mg group, 8 of 16 patients",50.0%
same,participants with no microhemosiderin deposits in the brain on MRI at end of treatment,"Caucasian, atabecestat groups, 80.6% at baseline",90.3%
same,Subjects with any TEAE,"10 mg, N=10",^2 (20.0) n (%)
same,TEAE: Accidental overdose,"10 mg, N=10",^1 (10.^0) n (%)
same,TEAE: Anxiety,"10 mg, N=10",^0 n (%)
same,TEAE: Bladder cancer,"10 mg, N=10",^0 n (%)
same,TEAE: Conjunctivitis,"10 mg, N=10",^0 n (%)
same,TEAE: Dementia Alzheimer’s type,"10 mg, N=10",^0 n (%)
same,TEAE: Depressed mood,"10 mg, N=10",^0 n (%)
same,TEAE: Dermatitis allergic,"10 mg, N=10",^0 n (%)
same,TEAE: Dizziness,"10 mg, N=10",^0 n (%)
same,TEAE: Eczema vesicular,"10 mg, N=10",^0 n (%)
same,TEAE: Fatigue,"10 mg, N=10",^0 n (%)
same,TEAE: Gastrointestinal disorders,"10 mg, N=10",^0 n (%)
same,TEAE: General disorders and administration site conditions,"10 mg, N=10",^0 n (%)
same,TEAE: Headache,"10 mg, N=10",^0 n (%)
same,TEAE: Hypertension,"10 mg, N=10",^0 n (%)
same,TEAE: Infections and infestations,"10 mg, N=10",^0 n (%)
same,"TEAE: Injury, poisoning and procedural complications","10 mg, N=10",^2 (20.0) n (%)
same,TEAE: Insomnia,"10 mg, N=10",^0 n (%)
same,TEAE: Irritability,"10 mg, N=10",^0 n (%)
same,TEAE: Musculoskeletal and connective tissue disorders,"10 mg, N=10",^0 n (%)
same,TEAE: Nasopharyngitis,"10 mg, N=10",^0 n (%)
same,TEAE: Nausea,"10 mg, N=10",^0 n (%)
same,TEAE: Neck pain,"10 mg, N=10",^0 n (%)
same,"TEAE: Neoplasms benign, malignant and unspecified","10 mg, N=10",^0 n (%)
same,TEAE: Nervous system disorders,"10 mg, N=10",^0 n (%)
same,TEAE: Post lumbar puncture syndrome,"10 mg, N=10",^2 (20.^0) n (%)
same,TEAE: Psoriasis,"10 mg, N=10",^0 n (%)
same,TEAE: Psychiatric disorders,"10 mg, N=10",^0 n (%)
same,TEAE: Renal and urinary disorders,"10 mg, N=10",^0 n (%)
same,TEAE: Renal colic,"10 mg, N=10",^0 n (%)
same,TEAE: Reproductive system and breast disorders,"10 mg, N=10",^0 n (%)
same,TEAE: Skin and subcutaneous tissue disorders,"10 mg, N=10",^0 n (%)
same,TEAE: Somnolence,"10 mg, N=10",^0 n (%)
same,TEAE: Syncope,"10 mg, N=10",^0 n (%)
same,TEAE: Urticaria,"10 mg, N=10",^0 n (%)
same,TEAE: Vascular disorders,"10 mg, N=10",^0 n (%)
same,TEAE: Vulvovaginal candidiasis,"10 mg, N=10",^0 n (%)
same,TEAE: Vulvovaginal pruritus,"10 mg, N=10",^0 n (%)
same,Subjects with any TEAE,"50 mg, N=10",^6 (60.0) n (%)
same,TEAE: Accidental overdose,"50 mg, N=10",^1 (10.^0) n (%)
same,TEAE: Anxiety,"50 mg, N=10",^1 (10.^0) n (%)
same,TEAE: Bladder cancer,"50 mg, N=10",^0 n (%)
same,TEAE: Conjunctivitis,"50 mg, N=10",^0 n (%)
same,TEAE: Dementia Alzheimer’s type,"50 mg, N=10",^1 (10.^0) n (%)
same,TEAE: Depressed mood,"50 mg, N=10",^1 (10.^0) n (%)
same,TEAE: Dermatitis allergic,"50 mg, N=10",^1 (10.^0) n (%)
same,TEAE: Dizziness,"50 mg, N=10",^0 n (%)
same,TEAE: Eczema vesicular,"50 mg, N=10",^1 (10.^0) n (%)
same,TEAE: Fatigue,"50 mg, N=10",^0 n (%)
same,TEAE: Gastrointestinal disorders,"50 mg, N=10",^1 (10.0) n (%)
same,TEAE: General disorders and administration site conditions,"50 mg, N=10",^0 n (%)
same,TEAE: Headache,"50 mg, N=10",^1 (10.^0) n (%)
same,TEAE: Hypertension,"50 mg, N=10",^0 n (%)
same,TEAE: Infections and infestations,"50 mg, N=10",^1 (10.^0) n (%)
same,"TEAE: Injury, poisoning and procedural complications","50 mg, N=10",^2 (20.^0) n (%)
same,TEAE: Insomnia,"50 mg, N=10",^0 n (%)
same,TEAE: Irritability,"50 mg, N=10",^1 (10.^0) n (%)
same,TEAE: Musculoskeletal and connective tissue disorders,"50 mg, N=10",^1 (10.^0) n (%)
same,TEAE: Nasopharyngitis,"50 mg, N=10",^0 n (%)
same,TEAE: Nausea,"50 mg, N=10",^1 (10·^0) n (%)
same,TEAE: Neck pain,"50 mg, N=10",^1 (10.^0) n (%)
same,"TEAE: Neoplasms benign, malignant and unspecified","50 mg, N=10",^0 n (%)
same,TEAE: Nervous system disorders,"50 mg, N=10",^2 (^20^.0) n (%)
same,TEAE: Post lumbar puncture syndrome,"50 mg, N=10",^1 (10.^0) n (%)
same,TEAE: Psoriasis,"50 mg, N=10",^0 n (%)
same,TEAE: Psychiatric disorders,"50 mg, N=10",^2 (^20^.0) n (%)
same,TEAE: Renal and urinary disorders,"50 mg, N=10",^1 (10.^0) n (%)
same,TEAE: Renal colic,"50 mg, N=10",^1 (10.^0) n (%)
same,TEAE: Reproductive system and breast disorders,"50 mg, N=10",^1 (10.^0) n (%)
same,TEAE: Skin and subcutaneous tissue disorders,"50 mg, N=10",^2 (^20^.0) n (%)
same,TEAE: Somnolence,"50 mg, N=10",^0 n (%)
same,TEAE: Syncope,"50 mg, N=10",^0 n (%)
same,TEAE: Urticaria,"50 mg, N=10",^0 n (%)
same,TEAE: Vascular disorders,"50 mg, N=10",^0 n (%)
same,TEAE: Vulvovaginal candidiasis,"50 mg, N=10",^1 (10.^0) n (%)
same,TEAE: Vulvovaginal pruritus,"50 mg, N=10",^1 (10.^0) n (%)
same,Subjects with any TEAE,"JNJ-54861911 total, N=20",^8 (40.0) n (%)
same,TEAE: Accidental overdose,"JNJ-54861911 total, N=20",^2 (10.0) n (%)
same,TEAE: Anxiety,"JNJ-54861911 total, N=20",^1 (5.0) n (%)
same,TEAE: Bladder cancer,"JNJ-54861911 total, N=20",^0 n (%)
same,TEAE: Conjunctivitis,"JNJ-54861911 total, N=20",^0 n (%)
same,TEAE: Dementia Alzheimer’s type,"JNJ-54861911 total, N=20",^1 (5.0) n (%)
same,TEAE: Depressed mood,"JNJ-54861911 total, N=20",^1 (5.0) n (%)
same,TEAE: Dermatitis allergic,"JNJ-54861911 total, N=20",^1 (5.0) n (%)
same,TEAE: Dizziness,"JNJ-54861911 total, N=20",^0 n (%)
same,TEAE: Eczema vesicular,"JNJ-54861911 total, N=20",^1 (5.0) n (%)
same,TEAE: Fatigue,"JNJ-54861911 total, N=20",^0 n (%)
same,TEAE: Gastrointestinal disorders,"JNJ-54861911 total, N=20",^1 (5.0) n (%)
same,TEAE: General disorders and administration site conditions,"JNJ-54861911 total, N=20",^0 n (%)
same,TEAE: Headache,"JNJ-54861911 total, N=20",^1 (5.0) n (%)
same,TEAE: Hypertension,"JNJ-54861911 total, N=20",^0 n (%)
same,TEAE: Infections and infestations,"JNJ-54861911 total, N=20",^1 (5.0) n (%)
same,"TEAE: Injury, poisoning and procedural complications","JNJ-54861911 total, N=20",^4 (20.0) n (%)
same,TEAE: Insomnia,"JNJ-54861911 total, N=20",^0 n (%)
same,TEAE: Irritability,"JNJ-54861911 total, N=20",^1 (5.0) n (%)
same,TEAE: Musculoskeletal and connective tissue disorders,"JNJ-54861911 total, N=20",^1 (5.0) n (%)
same,TEAE: Nasopharyngitis,"JNJ-54861911 total, N=20",^0 n (%)
same,TEAE: Nausea,"JNJ-54861911 total, N=20",^1 (5.0) n (%)
same,TEAE: Neck pain,"JNJ-54861911 total, N=20",^1 (5.0) n (%)
same,"TEAE: Neoplasms benign, malignant and unspecified","JNJ-54861911 total, N=20",^0 n (%)
same,TEAE: Nervous system disorders,"JNJ-54861911 total, N=20",^2 (10.0) n (%)
same,TEAE: Post lumbar puncture syndrome,"JNJ-54861911 total, N=20",^3 (15.0) n (%)
